Molecular target: P. falciparum apicoplast DNA polymerase (Pf-apPOL) (Plasmodium falciparum, UniProt Q8ILY1)
Test: Fluorescence-based high-throughput DNA polymerase assay (molecular beacon), primary screen and dose-response
Type: biochemical
Experimental: The HT assay employs a molecular beacon, a stem-loop DNA template with a Cy3 dye and the Black Hole Quencher on the 3′ and 5′ ends of the DNA, respectively. Pf-apPOL concentration is based on a calculated absorptivity of ε280 = 56750 M^−1 cm^−1. Reactions were carried out at 25 °C, using Corning 3575 […] (well-volume, 20 µL). Assays testing for compound inhibition composed of reaction buffer (pH 7.9 in 50 mM potassium acetate, 20 mM Tris-acetate and 10 mM magnesium acetate), Pf-apPOL (20 nM), DNA substrate (20 nM), dNTPs (6 µM), and compound (10 µM in DMSO). The DNA and nucleotide substrates (dNTPs) were at concentrations of 20 nM and 6 µM, respectively, in the assay. Pf-apPOL was incubated in the reaction buffer with dNTPs and the compound of interest (10 µM, in the assay) at 25 °C for 10 min. The DNA substrate was then added and the reaction was allowed to proceed for 90 min at 25 °C.
Each assay plate contained 16 negative controls (no Pf-apPOL, DMSO present) and 16 positive controls (Pf-apPOL present, no DMSO). The fluorescence of each well was determined using a BioTek Synergy Neo fluorescence plate reader using excitation and emission wavelengths of 555 and 570 nm, respectively.
In the above, Min is the average of fluorescence emission of the negative controls (substrate only), Max the average fluorescence emission from the positive controls (enzyme + substrate), and Test the emission from the assays in the presence of compounds (enzyme + compound + substrates). […] […] The IC50 of each compound was determined using Equation (2): (2) IC50= Vmax/(1+ (I/IC50)^n)
In the above, n measures cooperativity, with n > 1 indicating synergistic binding of more than a single molecule of the compound.
To identify apPOL inhibitors we utilised our previously developed high-throughput DNA polymerase assay. The HT assay is based on a molecular beacon DNA template that forms a stem-loop with a Cy3 dye and the Black Hole Quencher on the 3′ and 5′ ends of the DNA, respectively. DNA polymerase activity extends an annealed primer through the stem region, displacing the fluorophore from the quencher, thereby increasing its fluorescence (Figure 1(A)). The assay accurately recapitulates the kinetic behaviour of apPOL, as measured through more conventional low-throughput gel-based assays. The Z′ factor for the assay described here was 0.9 across all plates (data not shown).
Figure 1. High-throughput screening. (A) The fluorescent-based DNA polymerase assay used to screen the compound libraries. The DNA template strand is a hairpin loop with a primer annealed to the loop. The 3’ end of the primer is 11 bases away from the 6 bp duplex. Strand displacement activity of the DNA polymerase separates the Cy3 dye from the Black hole quencher leading to an increase in fluorescent signal. (B) The high-throughput assay workflow. The DNA polymerase is incubated with […] compound for 10 min prior to addition of the hairpin substrate. The reaction is quenched at 3 different time points and the fluorescent signal is measured and % inhibition is determined using the provided equation.

[1] = primary screen value of the 186 hits; unit not given; 90 min, 10 µM

Chain of P. falciparum apicoplast DNA polymerase (Pf-apPOL) (Q8ILY1 entry or part of it): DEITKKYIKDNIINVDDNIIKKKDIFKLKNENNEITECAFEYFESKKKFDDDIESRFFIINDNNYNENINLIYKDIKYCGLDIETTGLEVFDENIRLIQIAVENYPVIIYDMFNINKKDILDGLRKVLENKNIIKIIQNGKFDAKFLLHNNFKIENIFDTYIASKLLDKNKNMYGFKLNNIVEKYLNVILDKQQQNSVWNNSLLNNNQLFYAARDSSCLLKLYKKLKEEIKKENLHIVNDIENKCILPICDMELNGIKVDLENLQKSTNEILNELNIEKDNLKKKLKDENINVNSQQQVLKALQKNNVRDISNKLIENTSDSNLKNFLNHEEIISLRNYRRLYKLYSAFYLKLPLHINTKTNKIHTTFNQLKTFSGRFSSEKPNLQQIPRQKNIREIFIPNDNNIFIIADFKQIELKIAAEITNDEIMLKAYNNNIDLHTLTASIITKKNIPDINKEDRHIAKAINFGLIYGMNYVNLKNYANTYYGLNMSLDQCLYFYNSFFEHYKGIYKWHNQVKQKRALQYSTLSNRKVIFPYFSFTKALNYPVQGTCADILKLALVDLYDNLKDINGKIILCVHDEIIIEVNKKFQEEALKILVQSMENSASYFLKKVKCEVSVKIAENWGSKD

## O=C(Nc1c2c(nn1-c1ccc(Oc3ccccc3)cc1)CSC2)c1ccco1 [KU0055927]
DRC-1; 10'; concentration 2.5
  % inhibition Apo pol 10': 13.8958%
DRC-1; 10'; concentration 5
  % inhibition Apo pol 10': 29.5283%
DRC-1; 10'; concentration 10
  % inhibition Apo pol 10': 43.1911%
DRC-1; 10'; concentration 20
  % inhibition Apo pol 10': 76.7664%
DRC-1; 10'; concentration 40
  % inhibition Apo pol 10': 85.1313%
DRC-1; 10'; concentration 80
  % inhibition Apo pol 10': 86.5336%
DRC-1; 90'; concentration 2.5
  % inhibition Apol 90': 4.683%
DRC-1; 90'; concentration 5
  % inhibition Apol 90': 16.7633%
DRC-1; 90'; concentration 10
  % inhibition Apol 90': 30.4357%
DRC-1; 90'; concentration 20
  % inhibition Apol 90': 68.2983%
DRC-1; 90'; concentration 40
  % inhibition Apol 90': 80.3407%
DRC-1; 90'; concentration 80
  % inhibition Apol 90': 86.0743%
DRC-1; 180'; concentration 2.5
  % inhibition apPOL 180': -2.927%
DRC-1; 180'; concentration 5
  % inhibition apPOL 180': 5.714%
DRC-1; 180'; concentration 10
  % inhibition apPOL 180': 15.8435%
DRC-1; 180'; concentration 20
  % inhibition apPOL 180': 54.9886%
DRC-1; 180'; concentration 40
  % inhibition apPOL 180': 72.0227%
DRC-1; 180'; concentration 80
  % inhibition apPOL 180': 82.6026%
DRC-2, 40', concentration 5 (unit not given)
  % inhibition Apol 40': 12%
DRC-2, 40', concentration 40 (unit not given)
  % inhibition Apol 40': 69%
DRC-2, 180', concentration 40 (unit not given)
  % inhibition apPOL 180': 69%
DRC-2; 5'; concentration 2.5
  % inhibition Apo pol 5': 8.44%
DRC-2; 5'; concentration 5
  % inhibition Apo pol 5': 12%
DRC-2; 5'; concentration 5 (unit not given)
  % inhibition Apo pol 5': 12%
DRC-2; 5'; concentration 10
  % inhibition Apo pol 5': 40%
DRC-2; 5'; concentration 20
  % inhibition Apo pol 5': 51%
DRC-2; 5'; concentration 40
  % inhibition Apo pol 5': 54%
DRC-2; 5'; concentration 80
  % inhibition Apo pol 5': 55%
DRC-2; 40'; concentration 2.5
  % inhibition Apol 40': 9%
DRC-2; 40'; concentration 5
  % inhibition Apol 40': 12%
DRC-2; 40'; concentration 10
  % inhibition Apol 40': 47%
DRC-2; 40'; concentration 20
  % inhibition Apol 40': 65%
DRC-2; 40'; concentration 40
  % inhibition Apol 40': 69%
DRC-2; 40'; concentration 80
  % inhibition Apol 40': 72%
DRC-2; 90'; concentration 2.5
  % inhibition ApPOL 90': 7%
DRC-2; 90'; concentration 5
  % inhibition ApPOL 90': 9.5%
DRC-2; 90'; concentration 10
  % inhibition ApPOL 90': 45%
DRC-2; 90'; concentration 20
  % inhibition ApPOL 90': 66%
DRC-2; 90'; concentration 40
  % inhibition ApPOL 90': 71%
DRC-2; 90'; concentration 80
  % inhibition ApPOL 90': 75%
DRC-2; 180'; concentration 2.5
  % inhibition apPOL 180': 4%
DRC-2; 180'; concentration 5
  % inhibition apPOL 180': 3.19%
DRC-2; 180'; concentration 10
  % inhibition apPOL 180': 35%
DRC-2; 180'; concentration 20
  % inhibition apPOL 180': 62%
DRC-2; 180'; concentration 40
  % inhibition apPOL 180': 69%
DRC-2; 180'; concentration 80
  % inhibition apPOL 180': 77%
[1]
  DNA Pol: 57
Primary screen value, head "DNA Pol", unit not given; 90 min, 10 µM
  DNA Pol: 57

## CCOc1ccc2cc(C3=NN(C(=O)CCC(=O)O)C(c4ccc(C)cc4)C3)c(=O)[nH]c2c1 (stereo not drawn) [KU0056200]
DRC-1; concentration 2.5; 10'
  % inhibition Apo pol 10': 1.583%
DRC-1; concentration 2.5; 90'
  % inhibition Apol 90': -4.0405%
DRC-1; concentration 2.5; 180'
  % inhibition apPOL 180': -8.679%
DRC-1; concentration 5; 10'
  % inhibition Apo pol 10': 6.049%
DRC-1; concentration 5; 90'
  % inhibition Apol 90': 0.1368%
DRC-1; concentration 5; 180'
  % inhibition apPOL 180': -5.456%
DRC-1; concentration 10; 10'
  % inhibition Apo pol 10': 12.8328%
DRC-1; concentration 10; 90'
  % inhibition Apol 90': 2.997%
DRC-1; concentration 10; 180'
  % inhibition apPOL 180': -3.315%
DRC-1; concentration 20; 10'
  % inhibition Apo pol 10': 32.0591%
DRC-1; concentration 20; 90'
  % inhibition Apol 90': 18.8847%
DRC-1; concentration 20; 180'
  % inhibition apPOL 180': 8.488%
DRC-1; concentration 40; 10'
  % inhibition Apo pol 10': 80.8761%
DRC-1; concentration 40; 90'
  % inhibition Apol 90': 73.3726%
DRC-1; concentration 40; 180'
  % inhibition apPOL 180': 64.1358%
DRC-1; concentration 80 (unit not given); 10'
  % inhibition Apo pol 10': 88.576%
DRC-1; concentration 80; 90'
  % inhibition Apol 90': 90.0975%
DRC-1; concentration 80; 180'
  % inhibition apPOL 180': 90.0477%
DRC-2; 5'; concentration 10
  % inhibition Apo pol 5': 23%
DRC-2; 90'; concentration 10
  % inhibition ApPOL 90': 23%
DRC-2; 90'; concentration 40
  % inhibition ApPOL 90': 73%
DRC-2; 180'; concentration 40
  % inhibition apPOL 180': 73%
DRC-2; concentration 2.5; 5'
  % inhibition Apo pol 5': 2.23%
DRC-2; concentration 2.5; 40'
  % inhibition Apol 40': 0.754%
DRC-2; concentration 2.5; 90'
  % inhibition ApPOL 90': -0.536%
DRC-2; concentration 2.5; 180'
  % inhibition apPOL 180': -0.06%
DRC-2; concentration 5; 5'
  % inhibition Apo pol 5': 4.72%
DRC-2; concentration 5; 40'
  % inhibition Apol 40': 6%
DRC-2; concentration 5; 90'
  % inhibition ApPOL 90': 4.71%
DRC-2; concentration 5; 180'
  % inhibition apPOL 180': 1.23%
DRC-2; concentration 10; 5'
  % inhibition Apo pol 5': 23%
DRC-2; concentration 10; 40'
  % inhibition Apol 40': 25%
DRC-2; concentration 10; 90'
  % inhibition ApPOL 90': 23%
DRC-2; concentration 10; 180'
  % inhibition apPOL 180': 16%
DRC-2; concentration 20; 5'
  % inhibition Apo pol 5': 42%
DRC-2; concentration 20; 40'
  % inhibition Apol 40': 49%
DRC-2; concentration 20; 90'
  % inhibition ApPOL 90': 47%
DRC-2; concentration 20; 180'
  % inhibition apPOL 180': 39%
DRC-2; concentration 40; 5'
  % inhibition Apo pol 5': 54%
DRC-2; concentration 40; 40'
  % inhibition Apol 40': 70%
DRC-2; concentration 40; 90'
  % inhibition ApPOL 90': 73%
DRC-2; concentration 40; 180'
  % inhibition apPOL 180': 73%
DRC-2; concentration 80; 5'
  % inhibition Apo pol 5': 55%
DRC-2; concentration 80; 40'
  % inhibition Apol 40': 74%
DRC-2; concentration 80; 90'
  % inhibition ApPOL 90': 78%
DRC-2; concentration 80; 180'
  % inhibition apPOL 180': 82%
[1]
  DNA Pol: 36
Primary screen value; head prints only 'DNA Pol'; 90 min, 10 µM
  DNA Pol: 36

Reference: PMC9090415, “Discovery of small molecule inhibitors of Plasmodium falciparum apicoplast DNA polymerase” (Journal of Enzyme Inhibition and Medicinal Chemistry, 2022)
